Results reported in patent US12103969B2, “Anti-Siglec antibody, pharmaceutical composition comprising the same, and uses thereof” (Academia Sinica, priority 2018, dated 2024).
Where two headings read alike, the source gives them in different places.

Key:
[1] = target: T1, hHBV and Siglec-3 interaction (Homo sapiens, UniProt P20138); experiment: Competition assay of hHBV and Siglec-3 interaction by sialoglycan; type: binding
T1 construct: human Siglec-3/-7 extracellular domain (ECD); made in house; host or cells: FreeStyle 293 Expression System (Invitrogen); HBsAg/HBV purified from CHB patients' blood
Procedure: (§1) Sialidase S and sialidase C were used to remove sialoglycan from HBV or sialoglycans, respectively. Sialidase S releases only α(2-3)-linked Neu5Ac, while Sialidase C release both α(2-3) and α(2-6)-linked Neu5Ac. The sialidase-treated substrates were used for HBV-Siglec-3 binding assay and competition assay.
Siglec ECD.Fc fusion proteins (5 μg) were coated on microtitre plates, followed by addition of HBsAg (100 ng) in the presence various concentrations of following glycans: Neu5Ac(α2-6)-Gal-GlcNAc, Neu5Ac(α2-3)-Gal-GlcNAc, and Gal-GlcNAc at 4° C. for 12 hours with Protein free blocking buffer. The sialidase-treated and un-treated sialyglycans were used for competition assay.

[2] = target: T2, Siglec-3.Fc (Homo sapiens, UniProt P20138); experiment: Bio-layer interferometry: Siglec-3.Fc and Neu5Ac(α2-6)GalGlcNAc glycans; type: binding
T2 construct: human Siglec-3/-7 extracellular domain (ECD); made in house; host or cells: FreeStyle 293 Expression System (Invitrogen)
Procedure: (§2) The interaction between human Siglec.Fc fusion protein and HBV was determined by the Bio-layer interferometry. In brief, the biosensor was immobilized with the Siglec.Fc fusion protein, and the binding between the Siglec.Fc and HBV was performed with running buffer (10 mM Tris HCl, 150 mM NaCl, 2 mM CaCl2, 2 mM MgCl2, pH 7.4) at room temperature. The valence between HBV and human Siglec-3 was determined, which correlates the strength of multivalent association with that of monovalent association as shown in the following: • KA, surf=F (S×10^−2)^n−1×(KA, mono)^n, where KA, surf is thereciprocal of KD (HBV and Siglec-3), KA, mono is the reciprocal of KD (Biantennary a2-6 linked sialylglycopeptide and Siglec-3); n is the number of valency number; F is the statistic factor in the system and S is equal to 40(Å), which is estimated according to crystal structure of Siglec-3 published on RCSB protein data bank (Number: 5J0B). Three individual BLI results were used to calculate out the n (number of valency). Generation and Characterization of Anti-Siglec mAbs and Selection of Antagonistic Antibody

[3] = test system: hHBV; experiment: Immunoprecipitation of hHBV by Siglec ECD.Fc fusion proteins; type: binding, hepatitis B virus; conditions: Western blot with anti-HBs
Procedure: HBV ([…]) was incubated with recombinant Siglec-3/-7/-9 ECD.Fc fusion proteins, respectively, for 16 hours at 4° C., followed by incubation with Sepharose-conjugated Protein A beads for immunoprecipitation. The samples were fractionated on 12% SDS-PAGE before blotting to PVDF membrane and incubated in blocking buffer (0.05% Tween 20 in TBS containing 5% BSA) at 4° C. overnight. Blots were incubated with […] polyclonal goat-anti-HBs Ab for 1 hour at room temperature, followed by incubation with Streptavidin-HRP (1:10000 dilution) for another 1 hour at room temperature, and were visualized by ECL.

[4] = test system: mHBV; experiment: Bio-layer interferometry: immobilized Fc-lectin and mHBV; type: binding, hepatitis B virus; conditions: BLI, same condition as hHBV
Procedure: (§3) HBV was purified from blood samples of chronic hepatitis B (CHB) patients and HBV-transgenic mice, respectively. The protocol for HBV was purified by conventional method. HBV viral load was determinate by RT-PCR according to a standard HBV plasmid. HBsAg level was quantified by the HBsAg ELISA kit.
as §2

[5] = test system: hHBV; experiment: Bio-layer interferometry: immobilized Fc-lectin and hHBV; type: binding, hepatitis B virus
From the text: as §3, §1, §2

[6] = untreated glycan, various concentrations

T2 sequence (P20138 18-259 limits assumed): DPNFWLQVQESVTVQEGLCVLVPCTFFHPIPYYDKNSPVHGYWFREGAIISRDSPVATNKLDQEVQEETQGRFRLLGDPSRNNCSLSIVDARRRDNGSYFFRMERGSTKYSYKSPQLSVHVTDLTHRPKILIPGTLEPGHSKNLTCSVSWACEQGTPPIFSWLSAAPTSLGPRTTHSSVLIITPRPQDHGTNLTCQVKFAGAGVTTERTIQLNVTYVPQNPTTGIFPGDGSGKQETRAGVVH
T1 sequence (P20138 18-259 limits assumed): as above

## GalGlcNAc
[1]; [6]
  inhibition of Siglec-3-HBV interaction: did not inhibit Siglec-3-HBV interaction

## Neu5Ac(α2-3)GalGlcNAc
[1]; [6]
  inhibition of Siglec-3-HBV interaction: did not inhibit Siglec-3-HBV interaction

## Neu5Ac(α2-6)GalGlcNAc
[2]; immobilized Siglec-3, cell wraps: value is the mantissa, factor × 10^0 printed in the lines below
  Ka: 5.44 M⁻¹ s⁻¹
[2]; immobilized Siglec-3, cell wraps: value is the mantissa, factor × 10^−3 printed in the lines below
  Kd: 6.02 s⁻¹
[2]; recombinant Siglec-3.Fc (dimeric), full value, unit from Table 1, read-out: equilibrium dissociation constant (KD)
  Kd: 1590 µM
[1]; Sialidase C-treated glycan
  inhibition of Siglec-3-HBV interaction: lost its inhibitory effect
[1]; [6]
  inhibition of Siglec-3-HBV interaction: inhibited Siglec-3-HBV interaction in a dose-dependent manner

## Siglec-3: recombinant human Siglec-3 extracellular domain (ECD).Fc fusion protein
[3]
  pull down of hHBV HBsAg (immunoprecipitation): mainly pulled down glycosylated small HBsAg(h)
[4]
  binding to mHBV virions: did not bind
[5]; hHBV Sialidase S treated, cell wraps: value is the mantissa, factor × 10^5 printed in the lines below
  Ka: 7.11 M⁻¹ s⁻¹
[5]; hHBV Sialidase S treated, cell wraps: value is the mantissa, factor × 10^−4 printed in the lines below
  Kd: 2.73 s⁻¹
[5]; hHBV Untreat, cell wraps: value is the mantissa, factor × 10^6 printed in the lines below
  Ka: 1.18 M⁻¹ s⁻¹
[5]; hHBV Untreat, cell wraps: value is the mantissa, factor × 10^−4 printed in the lines below
  Kd: 6.97 s⁻¹
[5]; hHBV virions, full value, unit from Table 2, read-out: KD
  Kd: 0.000115 µM
[5]; hHBV, cell wraps: value is the mantissa, factor × 10^6 printed in the line below
  Ka: 3.11 M⁻¹ s⁻¹
[5]; hHBV, cell wraps: value is the mantissa, factor × 10^−4 printed in the line below
  Kd: 3.58 s⁻¹
[5]; α2-6 linked Neu5Ac removed from hHBV by sialidase C
  binding between Siglec-3 and hHBV: abolished the binding

## Siglec-9: recombinant Siglec-9 ECD.Fc fusion protein
[3]
  pull down of hHBV HBsAg (immunoprecipitation): cannot pull down
[5]; hHBV, BLI, same condition as Siglec-3
  binding to hHBV: did not bind
